Assay results as given in publication PMC9186373, “Design, synthesis, and biological evaluation of novel carbazole derivatives as potent DNMT1 inhibitors with reasonable PK properties” (Journal of Enzyme Inhibition and Medicinal Chemistry, 2022).
Where two headings read alike, the source gives them in different places.

Experiments:
human DNMT1 = assay: ELISA EpiQuik DNA methyltransferase (DNMT) activity/inhibitor assay; type: biochemical; settings: 200 nM purified DNMT1, EpiQuik kit; for Inh% at 50 μM: 50 μM compound; for Inh% at 100 μM: 100 μM compound
Procedure: (§1) All the compounds were first screened using an ELISA EpiQuik DNA methyltransferase (DNMT) activity/inhibitor assay kit (Epigentek). To measure the effects of the compounds on human DNMT1 activity, 200 nM purified DNMT1 was incubated with 50 µM and 100 µM of the different compounds and S-adenosylmethionine in the DNMT assay buffer in the assay plate at 37 °C for 2 h[36]. Next, every sample was incubated with the capture and detection antibody, followed by incubation with developer solution for 10 min at room temperature. The absorbance was measured at 450 nm using a POLARstar Omega microplate reader (BMG). S-Adenosylhomocysteine (AdoHcy) was used as a positive control. Methylation inhibition assays for EZH2, LSD, and G9a were performed in modified Tris, pH 9.0, buffer using AlphaLisa technology. An amount of 10 µL of the reaction system contained a corresponding concentration of SAM (Sigma) (EZH2 50 µM, LSD 50 µM, and G9a 50 µM), which was the Km value in each enzymatic reaction, plus 100 nM biotinylated peptide H3 (1–21) (synthesis by GLChina) and the relevant enzyme concentration (0.03 nM EZH2, 0.03 nM LSD, and 0.03 nM G9a). The proteins were preincubated with various compound concentrations for 15 min at room temperature before the substrate and SAM were added. After 60 min of incubation at room temperature, acceptor and donor AlphaLisa beads were added according to the manufacturer’s recommendations. The signals were read in Alpha mode with an EnSpire multimode plate reader (PerkinElmer). IC50 values were derived by fitting the data for the inhibition percentage to a dose-response curve by non-linear regression in GraphPad Prism 5.0[20].
DNMT1 inhibition test was performed on 30 candidates to verify their biochemical activities. The EpiQuik DNA methyl-transferase (DNMT) activity/inhibitor assay kit (Epigentek) was used to identify the activity of synthetic compounds.

DNMT1 = DNMT1 (Homo sapiens, UniProt P26358); assay: H3-labelled radioactive methylation assay; type: biochemical; settings: H3-labeled radioactive methylation assay; 40 nM DNMT1
Procedure: The DNMT1 radioactive methylation inhibition assays were performed in 30 µL reactions containing 0.1 µM adenosyl-L-methionine S-[methyl-^3H] (^3H-SAM, ^15 Ci/mmol, PerkinElmer), 0.25 µg/mL poly (dI-dC)·poly (dI-dC) (Sigma), 40 nM DNMT1 in 50 mM Tris-HCl, pH 8.0, 1 mM DTT, 5% glycerol, and 100 µg/mL BSA. The proteins were preincubated with a range of compound concentrations for 15 min at room temperature before adding the substrate and [^3H] SAM. After 60 min of incubation at 37 °C, the reaction systems were transferred to a MultiScreen HTS filter plate (Millipore), and the plate was washed 3 times with doubly distilled H2O via a vacuum. The radioactivity was determined by liquid scintillation counting (MicroBeta, PerkinElmer). IC50 values were derived by fitting the data for the inhibition percentage to a dose-response curve by non-linear regression in GraphPad Prism 5.0.
To quantitatively analyse DNMT1 inhibitory effect, the H^3-labelled radioactive methylation assay was conducted to measure the methyltransferase activity of DNMT1 at a range of concentrations for these compounds.

DNMT3A/3L = assay: Methyltransferase enzymatic selectivity profiling, DNMT3A/3L; type: biochemical; settings: 1 - selected enzyme inhibition/DNMT1 inhibition; 50 µM
Procedure: (§2) In addition to DNMT1, there are many other methyltransferases that can bind with S-adenosyl-L-methionine (SAM) to facilitate transmethylation reactions[24]^,[25]. To investigate the selectivity of these potent compounds for DNMT1, we then evaluated the inhibitory activities against DNMT1 and other important methyltransferases at the concentration of 50 µM, including DNMT3A/3L, DNMT3B/3L, and other SAM-dependent enzymes[1]^,[2]^,[26], such as EZH2[27], LSD1[28], G9a (histone H3 lysine 9 methyltransferase)[29].
(§3) Here, the selectivity of non-nucleoside DNMT1 inhibitors is somewhat predictable because other methyltransferases mentioned above catalyse different substrates and share very low homology with DNMT1, even in their catalytic domain[30–32]. Subsequently, the screened compounds were evaluated in a dose-dependent assay against HCT116 (human colon cancer cell line) and A549 (human lung carcinoma cell line).
(§4) 493 Relative selectivity index
(§5) 494 Relative selectivity index of DNMT1 is calculated by formula: DNMT1-selectivity
(§6) 495 index =1 - selected enzyme inhibition/DNMT1 inhibition. The closer
(§7) 496 that this value is to 1 or even more than 1, the better DNMT1-selectivity the of the
(§8) 498 Table S1. Relative selectivity index of DNMT1
Cpd. […]

DNMT3B/3L = assay: Methyltransferase enzymatic selectivity profiling, DNMT3B/3L; type: biochemical; settings: 50 µM; for Relative selectivity index of DNMT1 vs DNMT 3B/3L: 1 - selected enzyme inhibition/DNMT1 inhibition; for inhibitory activity against DNMT3B/3L: Figure 3
Procedure: as §2, §3, §4, §5, §6, §7, §8
Cpd. […]

EZH2 = assay: Methylation inhibition assay (AlphaLisa), EZH2; type: biochemical; settings: 50 µM; for Relative selectivity index of DNMT1 vs EZH2: 1 - selected enzyme inhibition/DNMT1 inhibition; for inhibitory activity against EZH2: Figure 3
Procedure: as §1, §2, §4, §5, §6, §7, §8
Cpd. […]

LSD1 = assay: Methylation inhibition assay (AlphaLisa), LSD1; type: biochemical; settings: 1 - selected enzyme inhibition/DNMT1 inhibition; 50 µM
Procedure: as §1, §2, §4, §5, §6, §7, §8
Cpd. […]

[1] = tested on: G9a (histone H3 lysine 9 methyltransferase); assay: Methylation inhibition assay (AlphaLisa), G9a; type: biochemical; settings: 50 µM; for Relative selectivity index of DNMT1 vs G9a: 1 - selected enzyme inhibition/DNMT1 inhibition; for inhibitory activity against G9a: Figure 3
Procedure: as §1, §2, §4, §5, §6, §7, §8
Cpd. […]

[2] = tested on: HCT116 (human colon cancer cells); assay: MTT assay, HCT116; type: cell-based
Procedure: (§9) The human lung cancer cells (A549) and human colon cancer cells (HCT116) were cultured in an RPMI-1640 medium containing 10% FBS, 100 U/mL streptomycin, and 100 U/mL penicillin at 37 °C in a humidified atmosphere with 5% CO2. All compounds were dissolved in DMSO and stock solutions were stored at −20 °C. Reagents were freshly diluted to the marked concentrations with a culture medium before use. DMSO concentration in experimental conditions never exceeded 0.1% (v/v). All cell lines were provided by the cell laboratory, School of pharmaceutical sciences, Guangzhou Medical University.
(§10) Cell viability was detected using an MTT assay kit. Cells were seeded into 96-well plates at a density of ∼1.0 × 10^4/well. 24 h later, sextuplicate wells were treated with media and new compounds at a fixed concentration (50 µM). After 24, 48, and 72 h, the drug-containing medium was replaced by a 100 µL fresh medium with 5 mg/mL MTT solution. After 4 h of incubation, the medium with MTT was removed, and 100 µL of DMSO was added to each well. The plates were gently agitated until the purple formazan crystals were dissolved, and the OD490 was determined using a […] (Olympus BX53, Japan). The data were calculated and plotted as the percent viability compared to the control.

[3] = tested on: A549 (human lung cancer cells); assay: MTT assay, A549; type: cell-based
Procedure: as §9, §10

[4] = HCT-116, 24 h, read-out: Inh % at 50 μM, HCT116, 24 h
[5] = HCT-116, 48 h, read-out: Inh % at 50 μM, HCT116, 48 h
[6] = HCT-116, 72 h, read-out: Inh % at 50 μM, HCT116, 72 h
[7] = 24 h, read-out: Inh % at 50 μM, A549, 24 h
[8] = 48 h, read-out: Inh % at 50 μM, A549, 48 h
[9] = 72 h, read-out: Inh % at 50 μM, A549, 72 h

Sequence of DNMT1 (P26358 whole entry): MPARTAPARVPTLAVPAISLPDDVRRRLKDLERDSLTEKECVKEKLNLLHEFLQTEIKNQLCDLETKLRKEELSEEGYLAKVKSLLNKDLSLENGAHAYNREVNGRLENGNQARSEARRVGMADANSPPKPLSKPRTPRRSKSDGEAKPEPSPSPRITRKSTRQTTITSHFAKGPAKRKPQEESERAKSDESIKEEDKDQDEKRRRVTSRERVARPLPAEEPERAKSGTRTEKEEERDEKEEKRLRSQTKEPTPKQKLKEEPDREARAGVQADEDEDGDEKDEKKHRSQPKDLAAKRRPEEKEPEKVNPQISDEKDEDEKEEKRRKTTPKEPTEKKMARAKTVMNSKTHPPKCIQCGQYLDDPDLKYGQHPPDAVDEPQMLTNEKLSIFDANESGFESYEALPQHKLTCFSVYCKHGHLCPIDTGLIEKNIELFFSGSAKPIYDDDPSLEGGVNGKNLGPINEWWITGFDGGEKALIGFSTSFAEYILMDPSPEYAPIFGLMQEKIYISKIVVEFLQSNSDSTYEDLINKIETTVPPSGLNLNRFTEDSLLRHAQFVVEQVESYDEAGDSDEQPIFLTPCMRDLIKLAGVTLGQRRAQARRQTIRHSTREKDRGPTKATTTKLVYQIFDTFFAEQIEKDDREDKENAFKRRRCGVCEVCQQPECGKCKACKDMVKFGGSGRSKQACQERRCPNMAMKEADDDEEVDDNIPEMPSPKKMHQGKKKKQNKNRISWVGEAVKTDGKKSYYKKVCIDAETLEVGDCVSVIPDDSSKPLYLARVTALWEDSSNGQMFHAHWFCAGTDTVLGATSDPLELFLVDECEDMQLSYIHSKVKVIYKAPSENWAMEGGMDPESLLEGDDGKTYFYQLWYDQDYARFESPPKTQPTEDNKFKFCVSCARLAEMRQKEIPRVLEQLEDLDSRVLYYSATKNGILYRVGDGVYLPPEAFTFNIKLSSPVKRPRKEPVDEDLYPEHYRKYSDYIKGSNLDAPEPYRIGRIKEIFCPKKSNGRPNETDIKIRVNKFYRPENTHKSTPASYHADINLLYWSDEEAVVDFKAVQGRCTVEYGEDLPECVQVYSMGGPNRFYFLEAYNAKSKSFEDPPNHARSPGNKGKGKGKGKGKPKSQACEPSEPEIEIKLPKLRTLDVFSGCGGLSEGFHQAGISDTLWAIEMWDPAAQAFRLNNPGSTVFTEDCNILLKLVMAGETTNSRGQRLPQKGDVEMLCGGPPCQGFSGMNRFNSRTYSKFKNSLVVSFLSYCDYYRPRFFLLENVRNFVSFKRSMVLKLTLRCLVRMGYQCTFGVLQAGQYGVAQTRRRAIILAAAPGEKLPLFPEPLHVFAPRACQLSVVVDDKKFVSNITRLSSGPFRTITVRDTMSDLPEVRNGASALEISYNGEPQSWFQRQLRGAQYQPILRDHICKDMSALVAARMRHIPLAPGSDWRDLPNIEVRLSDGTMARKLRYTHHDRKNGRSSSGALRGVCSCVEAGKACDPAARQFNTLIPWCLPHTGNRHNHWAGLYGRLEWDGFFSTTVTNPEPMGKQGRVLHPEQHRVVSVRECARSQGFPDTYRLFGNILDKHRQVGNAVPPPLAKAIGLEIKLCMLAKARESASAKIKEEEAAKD

| SMILES | Inh% at 50 μM (human DNMT1) | Inh% at 100 μM (human DNMT1) | IC50 (DNMT1) | Relative selectivity index of DNMT1 vs DNMT 3A/3L (DNMT3A/3L) | Relative selectivity index of DNMT1 vs DNMT 3B/3L (DNMT3B/3L) | Relative selectivity index of DNMT1 vs EZH2 (EZH2) | Relative selectivity index of DNMT1 vs LSD1 (LSD1) | Relative selectivity index of DNMT1 vs G9a [1] | inhibition at 50 µM [2, 4] | inhibition at 50 µM [2, 5] | inhibition at 50 µM [2, 6] | inhibition at 50 µM [3, 7] | inhibition at 50 µM [3, 8] | inhibition at 50 µM [3, 9] | melting point | inhibitory activity against DNMT3B/3L (DNMT3B/3L) | inhibitory activity against EZH2 (EZH2) | inhibitory activity against G9a [1] |
| --- | --- | --- | --- | --- | --- | --- | --- | --- | --- | --- | --- | --- | --- | --- | --- | --- | --- | --- |
| CC(CO)NCC(O)Cn1c2ccc(F)cc2c2cc(F)ccc21 (stereo not drawn) [WK-19, 2-((3-(3,6-Difluoro-9H-carbazol-9-yl)-2-hydroxypropyl)amino)propan-1-ol] | 78% | 93% | 9.2 µM | 0.67 | 1.29 | 1.01 | 0.29 | 0.91 | 5.6% | 59.4% | 88.3% | 7.9% | 68.4% | 79.9% | 136 to 138 °C |  |  |  |
| OC(CNCCc1c[nH]c2ccccc12)Cn1c2ccc(F)cc2c2cc(F)ccc21 (stereo not drawn) [WK-12, 1-((2-(1H-indol-3-yl)ethyl)amino)-3-(3,6-difluoro-9H-carbazol-9-yl)propan-2-ol] | 99% | 94% | 17 µM | 0.67 | 1.09 | 0.91 | 0.23 | 0.93 | 77.7% | 88.8% | 96.7% | 59.9% | 80.1% | 84.7% | 130 to 132 °C | hardly any inhibitory activities | hardly any inhibitory activities | hardly any inhibitory activities |
| OC(CNCCc1c[nH]c2ccccc12)Cn1c2ccccc2c2cc(F)ccc21 (stereo not drawn) [WK-1, 1-((2-(1H-indol-3-yl)ethyl)amino)-3-(3-fluoro-9H-carbazol-9-yl)propan-2-ol] | 82% | 100% | 28 µM | 0.49 | 1.15 | 0.93 | 0.18 | 0.84 | 90.9% | 88% | 94.9% | 88.2% | 78.6% | 87.6% | 137 to 139 °C | hardly any inhibitory activities | hardly any inhibitory activities | hardly any inhibitory activities |
